Experiments:
Type in all cases: in vivo
[1] = system: corn (ZEAMD; Zea mays, cv. ‘Pioneer 1184’); experiment: Test of Tables L1 to L3, postemergence, mixtures of Cpd. No. 20 with benoxacor, isoxadifen-ethyl, or cloquintocet-mexyl; conditions: 31 g a.i./ha
Text: (§1) This test evaluated the effect of mixtures of Cpd. No. 20 with benoxacor, isoxadifen-ethyl, or cloquintocet-mexyl on several plant species. Seeds of plant species selected from corn (ZEAMD; Zea mays, cv. ‘Pioneer 1184’), soybean (GLXMA; Glycine max, cv. Pioneer 35T58), winter wheat (TRZAW; Triticum aetivum, cv. Arezzo), rice (ORYSS; Oryza sativa, cv. M202), and giant foxtail (SETFA; Setaria faberi) were planted in pots containing Redi-Earth® planting medium (Scotts Company, 14111 Scottslawn Road, Marysville, Ohio 43041) comprising spaghnum peat moss, vermiculite, wetting agent and starter nutrients and treated postemergence using test chemicals formulated in a non-phytotoxic solvent mixture which included a surfactant. Plants ranged in height from 7 to 10 cm and were in the one- to two-leaf stage for the postemergence treatment. Treated plants and untreated controls were maintained in a greenhouse for approximately 14 d, after which time all treated plants were compared to untreated controls and visually evaluated for injury. Plant response ratings, summarized in Tables L1 to L3, are based on a 0 to 100 scale where 0 is no effect and 100 is complete control. A dash (-) response means no test result. Test results are presented as a mean of 4 reps.

[2] = system: giant foxtail (SETFA; Setaria faberi); experiment: as above; conditions: 31 g a.i./ha
Text: as §1

[3] = system: rice (ORYSS; Oryza sativa, cv. M202); experiment: as above; conditions: 31 g a.i./ha
Text: as §1

[4] = system: soybean (GLXMA; Glycine max, cv. Pioneer 35T58); experiment: as above; conditions: 31 g a.i./ha
Text: as §1

[5] = system: winter wheat (TRZAW; Triticum aetivum, cv. Arezzo); experiment: as above; conditions: 31 g a.i./ha
Text: as §1

[6] = system: common ragweed (AMBEL; Ambrosia artemisiifolia); experiment: Test K pre-/postemergence, mixtures of Cpd. No. 20 with metribuzin or rimsulfuron
Text: (§2) This test evaluated the effect of mixtures of Cpd. No. 20 with metribuzin or rimsulfuron on several plant species. Seeds of plant species selected from corn (ZEAMD; Zea mays, cv. ‘Pioneer 1184’), soybean (GLXMA; Glycine max, cv. Pioneer 35T58), giant foxtail (SETFA; Setaria faberi), palmer amaranth (AMAPA; Amaranthus palmeri), common waterhemp (AMATU; Amaranthus rudis), mare's tail (ERICA; Conyza canadensis), and common ragweed (AMBEL; Ambrosia artemisiifolia) were planted in pots containing Tama Silt Loam soil and treated preemergence with a directed soil spray using test chemicals formulated in a non-phytotoxic solvent mixture which included a surfactant.
(§3) At the same time, plants selected from these crop and weed species were planted in pots containing Redi-Earth® planting medium (Scotts Company, 14111 Scottslawn Road, Marysville, Ohio 43041) comprising spaghnum peat moss, vermiculite, wetting agent and starter nutrients and treated postemergence with test chemicals formulated in the same manner. Plants ranged in height from 2 to 10 cm and were in the one- to two-leaf stage for the postemergence treatment. Treated plants and untreated controls were maintained in a greenhouse for approximately 14-21 d, after which time all treated plants were compared to untreated controls and visually evaluated for injury. Plant response ratings, summarized in Tables K1 to K4, are based on a 0 to 100 scale where 0 is no effect and 100 is complete control. A dash (-) response means no test result. Test results are presented as a mean of 4 reps.

[7] = system: common waterhemp (AMATU; Amaranthus rudis); experiment: as above
Text: as §2, §3

[8] = system: corn (ZEAMD; Zea mays, cv. ‘Pioneer 1184’); experiment: as above
Text: as §2, §3

[9] = system: giant foxtail (SETFA; Setaria faberi); experiment: as above
Text: as §2, §3

[10] = system: mare's tail (ERICA; Conyza canadensis); experiment: as above
Text: as §2, §3

[11] = system: palmer amaranth (AMAPA; Amaranthus palmeri); experiment: as above
Text: as §2, §3

[12] = system: soybean (GLXMA; Glycine max, cv. Pioneer 35T58); experiment: as above
Text: as §2, §3

CC1COc2ccccc2N1C(=O)C(Cl)Cl (stereo not drawn) [Benoxacor, benoxacor, reference compound]
ZEAMD plant response rating, 0 to 100 scale [1]: 0 | SETFA plant response rating, 0 to 100 scale [2]: 0 | ORYSS plant response rating, 0 to 100 scale [3]: 0 | GLXMA plant response rating, 0 to 100 scale [4]: 0 | TRZAW plant response rating, 0 to 100 scale [5]: 0

CSc1nnc(C(C)(C)C)c(=O)n1N [Metribuzin, metribuzin, reference compound]
AMBEL plant response rating, 0 to 100 scale ([6]; postemergence, 62 g a.i./ha): 55 | AMBEL plant response rating, 0 to 100 scale ([6]; postemergence, 125 g a.i./ha): 62 | AMBEL plant response rating, 0 to 100 scale ([6]; preemergence, 62 g a.i./ha): 40 | AMBEL plant response rating, 0 to 100 scale ([6]; preemergence, 125 g a.i./ha): 100 | AMATU plant response rating, 0 to 100 scale ([7]; postemergence, 62 g a.i./ha): 37 | AMATU plant response rating, 0 to 100 scale ([7]; postemergence, 125 g a.i./ha): 82 | AMATU plant response rating, 0 to 100 scale ([7]; preemergence, 62 g a.i./ha): 53 | AMATU plant response rating, 0 to 100 scale ([7]; preemergence, 125 g a.i./ha): 86 | ZEAMD plant response rating, 0 to 100 scale ([8]; postemergence, 62 g a.i./ha): 0 | ZEAMD plant response rating, 0 to 100 scale ([8]; postemergence, 125 g a.i./ha): 10 | ZEAMD plant response rating, 0 to 100 scale ([8]; preemergence, 62 g a.i./ha): 0 | ZEAMD plant response rating, 0 to 100 scale ([8]; preemergence, 125 g a.i./ha): 0 | SETFA plant response rating, 0 to 100 scale ([9]; postemergence, 62 g a.i./ha): 0 | SETFA plant response rating, 0 to 100 scale ([9]; postemergence, 125 g a.i./ha): 10 | SETFA plant response rating, 0 to 100 scale ([9]; preemergence, 62 g a.i./ha): 30 | SETFA plant response rating, 0 to 100 scale ([9]; preemergence, 125 g a.i./ha): 80 | ERICA plant response rating, 0 to 100 scale ([10]; postemergence, 62 g a.i./ha): 10 | ERICA plant response rating, 0 to 100 scale ([10]; postemergence, 125 g a.i./ha): 13 | ERICA plant response rating, 0 to 100 scale ([10]; preemergence, 62 g a.i./ha): 100 | ERICA plant response rating, 0 to 100 scale ([10]; preemergence, 125 g a.i./ha): 100 | AMAPA plant response rating, 0 to 100 scale ([11]; postemergence, 62 g a.i./ha): 35 | AMAPA plant response rating, 0 to 100 scale ([11]; postemergence, 125 g a.i./ha): 47 | AMAPA plant response rating, 0 to 100 scale ([11]; preemergence, 62 g a.i./ha): 78 | AMAPA plant response rating, 0 to 100 scale ([11]; preemergence, 125 g a.i./ha): 70 | GLXMA plant response rating, 0 to 100 scale ([12]; postemergence, 62 g a.i./ha): 33 | GLXMA plant response rating, 0 to 100 scale ([12]; postemergence, 125 g a.i./ha): 53 | GLXMA plant response rating, 0 to 100 scale ([12]; preemergence, 62 g a.i./ha): 0 | GLXMA plant response rating, 0 to 100 scale ([12]; preemergence, 125 g a.i./ha): 0

Reference: patent US12435044B2, “Pyridazinone herbicides and pyridazinone intermediates used to prepare a herbicide” (FMC Corporation, priority 2018, dated 2025)
